Reference: PubChem BioAssay AID270 (DTP/NCI, 2004)
Several values for one entry are separate records, joined by “and”; a condition that tells them apart may be missing. Identical values can stand only once. Results filed as inconclusive are left out.

Tested on: BDF1 mice, s.c. Lewis lung carcinoma, T/C %
Assay: NCI In Vivo Anticancer Drug Screen. Data for tumor model Lewis Lung Carcinoma (subcutaneous) in B6D2F1 (BDF1) mice
Summary of the method: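 The value reflects a ratio in which the treated cohort's survival time or tumour size is compared against mice receiving only vehicle.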

[1] = endpoint: median survival time, dose: 0.5 mg/kg/injection, schedule: Q01DX009 (ip), vehicle: saline, higher = longer survival
[2] = endpoint: median survival time, dose: 1.0 mg/kg/injection, schedule: Q01DX009 (ip), vehicle: saline, higher = longer survival
[3] = endpoint: mean tumor weight, dose: 50.0 mg/kg/injection, schedule: Q01DX011 (ip), vehicle: saline, higher = larger tumour

COc1ccc(Nc2ccnc3cc(Cl)ccc23)cc1CN(CCCl)CCCl
T/C (endpoint: mean tumor weight, dose: 0.06 mg/kg/injection, schedule: Q01DX011 (ip), vehicle: other, higher = larger tumour): 113 % of control | T/C (endpoint: mean tumor weight, dose: 0.12 mg/kg/injection, schedule: Q01DX011 (ip), vehicle: other, higher = larger tumour): 94 % of control | T/C (endpoint: mean tumor weight, dose: 0.25 mg/kg/injection, schedule: Q01DX011 (ip), vehicle: other, higher = larger tumour): 85 % of control | T/C (endpoint: mean tumor weight, dose: 0.5 mg/kg/injection, schedule: Q01DX011 (ip), vehicle: other, higher = larger tumour): 26 % of control and 44 % of control | T/C (endpoint: mean tumor weight, dose: 1.0 mg/kg/injection, schedule: Q01DX011 (ip), vehicle: other, higher = larger tumour): 32 % of control

CCCCCCCCCCCC(c1ccccc1)[N+](C)(C)C (configuration not stated)
T/C [1]: 102 % of control | T/C [2]: 96 % of control | T/C (endpoint: median survival time, dose: 2.0 mg/kg/injection, schedule: Q01DX009 (ip), vehicle: saline, higher = longer survival): 93 % of control

COc1cccc(/C=N/C(=S)NC2(C)C3CCC(C3)C2(C)C)c1O (configuration not stated)
T/C (endpoint: median survival time, dose: 6.25 mg/kg/injection, schedule: Q01DX009 (ip), vehicle: olive oil, sesame oil, peanut oil, higher = longer survival): 98 % of control | T/C (endpoint: median survival time, dose: 12.5 mg/kg/injection, schedule: Q01DX009 (ip), vehicle: olive oil, sesame oil, peanut oil, higher = longer survival): 94 % of control | T/C (endpoint: median survival time, dose: 100.0 mg/kg/injection, schedule: Q01DX009 (ip), vehicle: olive oil, sesame oil, peanut oil, higher = longer survival): 90 % of control

CO[C@@]12[C@H](COC(N)=O)C3=C(C(=O)C(C)=C(N)C3=O)N1C[C@@H]1N[C@@H]12
T/C (endpoint: median survival time, dose: 0.12 mg/kg/injection, schedule: Q01DX009 (ip), vehicle: saline, higher = longer survival): 98 % of control | T/C (endpoint: median survival time, dose: 0.25 mg/kg/injection, schedule: Q01DX009 (ip), vehicle: Klucel (hydroxypropylcellulose) (HPC), higher = longer survival): 96 % of control | T/C (endpoint: median survival time, dose: 0.25 mg/kg/injection, schedule: Q01DX009 (ip), vehicle: saline, higher = longer survival): 98 % of control | T/C (endpoint: median survival time, dose: 0.5 mg/kg/injection, schedule: Q01DX009 (ip), vehicle: Klucel (hydroxypropylcellulose) (HPC), higher = longer survival): 96 % of control | T/C [1]: 96 % of control | T/C [2]: 103 % of control

O=S(=O)(O)c1cc(O)ccc1O
T/C (endpoint: mean tumor weight, dose: 133.0 mg/kg/injection, schedule: Q01DX011 (ip), vehicle: saline, higher = larger tumour): 66 % of control | T/C (endpoint: mean tumor weight, dose: 300.0 mg/kg/injection, schedule: Q01DX011 (ip), vehicle: saline, higher = larger tumour): 99 % of control and 119 % of control | T/C (endpoint: mean tumor weight, dose: 600.0 mg/kg/injection, schedule: Q01DX011 (ip), vehicle: saline, higher = larger tumour): 67 % of control

CC1([CH2][Hg][I])COCC([CH2][Hg][I])O1 (configuration not stated)
T/C (endpoint: mean tumor weight, dose: 5.0 mg/kg/injection, schedule: Q01DX011 (ip), vehicle: saline, higher = larger tumour): 63 % of control | T/C (endpoint: mean tumor weight, dose: 10.0 mg/kg/injection, schedule: Q01DX011 (ip), vehicle: saline, higher = larger tumour): 42 % of control | T/C (endpoint: mean tumor weight, dose: 20.0 mg/kg/injection, schedule: Q01DX011 (ip), vehicle: saline, higher = larger tumour): 52 % of control | T/C (endpoint: mean tumor weight, dose: 40.0 mg/kg/injection, schedule: Q01DX011 (ip), vehicle: saline, higher = larger tumour): 39 % of control

CCn1cnc2c(=S)nc(N)[nH]c21
T/C (endpoint: mean tumor weight, dose: 3.8 mg/kg/injection, schedule: Q01DX011 (ip), vehicle: other, higher = larger tumour): 81 % of control | T/C (endpoint: mean tumor weight, dose: 7.5 mg/kg/injection, schedule: Q01DX011 (ip), vehicle: other, higher = larger tumour): 63 % of control | T/C (endpoint: mean tumor weight, dose: 15.0 mg/kg/injection, schedule: Q01DX011 (ip), vehicle: other, higher = larger tumour): 17 % of control

CN1CC(=O)N=C1N
T/C (endpoint: mean tumor weight, dose: 31.3 mg/kg/injection, schedule: Q01DX011 (ip), vehicle: saline, higher = larger tumour): 116 % of control | T/C (endpoint: mean tumor weight, dose: 62.5 mg/kg/injection, schedule: Q01DX011 (ip), vehicle: saline, higher = larger tumour): 150 % of control | T/C (endpoint: mean tumor weight, dose: 125.0 mg/kg/injection, schedule: Q01DX011 (ip), vehicle: saline, higher = larger tumour): 119 % of control | T/C (endpoint: mean tumor weight, dose: 250.0 mg/kg/injection, schedule: Q01DX011 (ip), vehicle: saline, higher = larger tumour): 105 % of control

CCC1/C=C/C=C/CC(C)C(O)C(C)(O)C(=O)C(C)C(O)C(C)C(=O)C(C)C(O)C(C)/C=C/C(=O)OC2C(C)C(CC1)OC1(OC(CC(C)O)C(C)CC1=O)C2C (configuration not stated) (tested in a mixture with another compound)
T/C (endpoint: mean tumor weight, dose: 2.0 mg/kg/injection, schedule: Q01DX011 (ip), vehicle: saline, higher = larger tumour): 106 % of control | T/C (endpoint: mean tumor weight, dose: 4.0 mg/kg/injection, schedule: Q01DX011 (ip), vehicle: saline, higher = larger tumour): 94 % of control | T/C (endpoint: mean tumor weight, dose: 8.0 mg/kg/injection, schedule: Q01DX011 (ip), vehicle: saline, higher = larger tumour): 82 % of control

O=NN(CCF)C(=O)NC1CCCCC1
T/C (endpoint: median survival time, dose: 5.0 mg/kg/injection, schedule: Q01DX001 (ip), vehicle: Klucel (hydroxypropylcellulose) (HPC), higher = longer survival): 101 % of control (2×) and 119 % of control | T/C (endpoint: median survival time, dose: 5.1 mg/kg/injection, schedule: Q01DX001 (ip), vehicle: other, higher = longer survival): 96 % of control | T/C (endpoint: median survival time, dose: 10.0 mg/kg/injection, schedule: Q01DX001 (ip), vehicle: Klucel (hydroxypropylcellulose) (HPC), higher = longer survival): 90 % of control and 116 % of control and 119 % of control | T/C (endpoint: median survival time, dose: 10.2 mg/kg/injection, schedule: Q01DX001 (ip), vehicle: other, higher = longer survival): 105 % of control | T/C (endpoint: median survival time, dose: 20.0 mg/kg/injection, schedule: Q01DX001 (ip), vehicle: Klucel (hydroxypropylcellulose) (HPC), higher = longer survival): 101 % of control and 109 % of control and 119 % of control | T/C (endpoint: median survival time, dose: 20.4 mg/kg/injection, schedule: Q01DX001 (ip), vehicle: other, higher = longer survival): 121 % of control | T/C (endpoint: median survival time, dose: 40.0 mg/kg/injection, schedule: Q01DX001 (ip), vehicle: Klucel (hydroxypropylcellulose) (HPC), higher = longer survival): 182 % of control

c1ccc2ncccc2c1
T/C (endpoint: mean tumor weight, dose: 25.0 mg/kg/injection, schedule: Q01DX011 (ip), vehicle: saline, higher = larger tumour): 81 % of control | T/C [3]: 49 % of control

CC(C)CCC[C@@H](C)[C@H]1CC[C@H]2[C@@H]3CC=C4C[C@@H](OC(=O)Cc5ccc(N(CCCl)CCCl)cc5)CC[C@]4(C)[C@H]3CC[C@]12C
T/C (endpoint: mean tumor weight, dose: 50.0 mg/kg/injection, schedule: Q01DX011 (sc), vehicle: steriod suspending solution, higher = larger tumour): 84 % of control | T/C (endpoint: mean tumor weight, dose: 100.0 mg/kg/injection, schedule: Q01DX011 (sc), vehicle: steriod suspending solution, higher = larger tumour): 76 % of control | T/C (endpoint: mean tumor weight, dose: 200.0 mg/kg/injection, schedule: Q01DX011 (sc), vehicle: steriod suspending solution, higher = larger tumour): 78 % of control | T/C (endpoint: mean tumor weight, dose: 400.0 mg/kg/injection, schedule: Q01DX011 (sc), vehicle: steriod suspending solution, higher = larger tumour): 57 % of control

CC(=O)O[C@@H]1[C@H]2O[C@H]2[C@H]2O[C@@]2(COC(=O)c2ccccc2)[C@H]1OC(C)=O
T/C (endpoint: mean tumor weight, dose: 150.0 mg/kg/injection, schedule: Q01DX011 (ip), vehicle: carboxymethylcellulose (CMC), higher = larger tumour): 24 % of control | T/C (endpoint: mean tumor weight, dose: 200.0 mg/kg/injection, schedule: Q01DX011 (ip), vehicle: carboxymethylcellulose (CMC), higher = larger tumour): 307 % of control | T/C (endpoint: mean tumor weight, dose: 300.0 mg/kg/injection, schedule: Q01DX011 (ip), vehicle: carboxymethylcellulose (CMC), higher = larger tumour): 119 % of control | T/C (endpoint: median survival time, dose: 3.12 mg/kg/injection, schedule: Q01DX009 (ip), vehicle: gum acacia, higher = longer survival): 95 % of control | T/C (endpoint: median survival time, dose: 6.25 mg/kg/injection, schedule: Q01DX009 (ip), vehicle: gum acacia, higher = longer survival): 92 % of control | T/C (endpoint: median survival time, dose: 12.5 mg/kg/injection, schedule: Q01DX009 (ip), vehicle: gum acacia, higher = longer survival): 115 % of control | T/C (endpoint: median survival time, dose: 25.0 mg/kg/injection, schedule: Q01DX009 (ip), vehicle: gum acacia, higher = longer survival): 87 % of control

COc1ccc([C@@H]2c3cc4c(cc3C[C@H]3COC(=O)[C@@H]32)OCO4)cc1OC
T/C (endpoint: median survival time, dose: 11.0 mg/kg/injection, schedule: Q01DX009 (ip), vehicle: saline with Tween-80, higher = longer survival): 98 % of control | T/C (endpoint: median survival time, dose: 22.0 mg/kg/injection, schedule: Q01DX009 (ip), vehicle: saline with Tween-80, higher = longer survival): 100 % of control | T/C (endpoint: median survival time, dose: 33.0 mg/kg/injection, schedule: Q01DX009 (ip), vehicle: saline with Tween-80, higher = longer survival): 97 % of control

CC(=O)Oc1ccc(OC(C)=O)c2c1C(=O)C=CC2=O
T/C (endpoint: median survival time, dose: 0.38 mg/kg/injection, schedule: Q01DX009 (ip), vehicle: Klucel (hydroxypropylcellulose) (HPC), higher = longer survival): 107 % of control | T/C (endpoint: median survival time, dose: 0.75 mg/kg/injection, schedule: Q01DX009 (ip), vehicle: Klucel (hydroxypropylcellulose) (HPC), higher = longer survival): 96 % of control | T/C (endpoint: median survival time, dose: 1.5 mg/kg/injection, schedule: Q01DX009 (ip), vehicle: Klucel (hydroxypropylcellulose) (HPC), higher = longer survival): 100 % of control | T/C (endpoint: median survival time, dose: 3.0 mg/kg/injection, schedule: Q01DX009 (ip), vehicle: Klucel (hydroxypropylcellulose) (HPC), higher = longer survival): 113 % of control | T/C (endpoint: median survival time, dose: 3.12 mg/kg/injection, schedule: Q01DX009 (ip), vehicle: Klucel (hydroxypropylcellulose) (HPC), higher = longer survival): 111 % of control

CCCCS(=O)CC(CO)NC(=O)/C=C/c1c(C)[nH]c(=O)[nH]c1=O (configuration not stated)
T/C (endpoint: median survival time, dose: 0.63 mg/kg/injection, schedule: Q01DX009 (ip), vehicle: water, higher = longer survival): 101 % of control | T/C (endpoint: median survival time, dose: 2.5 mg/kg/injection, schedule: Q01DX009 (ip), vehicle: water, higher = longer survival): 113 % of control | T/C (endpoint: median survival time, dose: 5.0 mg/kg/injection, schedule: Q01DX009 (ip), vehicle: water, higher = longer survival): 89 % of control

Oc1cc(O)c2c(c1)O[C@H](c1ccc(O)c(O)c1)[C@@H](O)C2
T/C [3]: 76 % of control | T/C (endpoint: mean tumor weight, dose: 100.0 mg/kg/injection, schedule: Q01DX011 (ip), vehicle: saline, higher = larger tumour): 94 % of control | T/C (endpoint: mean tumor weight, dose: 200.0 mg/kg/injection, schedule: Q01DX011 (ip), vehicle: saline, higher = larger tumour): 72 % of control | T/C (endpoint: mean tumor weight, dose: 400.0 mg/kg/injection, schedule: Q01DX011 (ip), vehicle: saline, higher = larger tumour): 74 % of control

O=C(Nc1ccc(C2=NCCN2)cc1)c1ccc(C(=O)Nc2ccc(C3=NCCN3)cc2)c(Cl)c1
T/C (endpoint: mean tumor weight, dose: 5.0 mg/kg/injection, schedule: Q01DX011 (ip), vehicle: carboxymethylcellulose (CMC), higher = larger tumour): 73 % of control | T/C (endpoint: mean tumor weight, dose: 10.0 mg/kg/injection, schedule: Q01DX011 (ip), vehicle: carboxymethylcellulose (CMC), higher = larger tumour): 51 % of control | T/C (endpoint: mean tumor weight, dose: 20.0 mg/kg/injection, schedule: Q01DX011 (ip), vehicle: carboxymethylcellulose (CMC), higher = larger tumour): 81 % of control
